Assay results published in BindingDB's records for doi:10.1021/jm201198w (University of Kentucky, 2012).

Target: Tyrosine-protein kinase SYK (Homo sapiens) (UniProt P43405)
Assay: Inhibition of SYK

Ki: 220 nM
Compound: Nc1nc(Nc2ccc([C@H]3CC[C@H](N4CCOCC4)CC3)cc2)nn1-c1ccccn1
